Measured values published in PubChem BioAssay AID743023 (Sanford-Burnham Center for Chemical Genomics, 2013).
Calls of active or inactive are those of the source.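 The calls were made as follows: active = mean IC50 of 15000 nM or lower against heat shock reporter, a sign of off-target artifact; inactive = the rest.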

Tested on: C. elegans VP596 hsp-16.2 GFP/RFP heat-shock reporter fluorescence
Experiment: inhibitors of hsp-16.2 induction by heat – whole organism, C. elegans VP596, GFP/RFP ratio, round 3, counter-screen for SKN-1 inhibitor project, SAR follow-up (AID 743023)

Compound | IC50
Cc1ccc(-c2csc(C3CCNCC3)n2)cc1 | > 64 µM (inactive)
Clc1ccc(-c2csc(-c3ccncc3)n2)cc1 | > 64 µM (inactive)
COC(=O)c1ccc(-c2csc(-c3ccncc3)n2)cc1 | > 64 µM (inactive)
Fc1ccc(-c2csc(-c3ccccc3)n2)cc1 | > 64 µM (inactive)
c1ccc(-c2csc(-c3cccnc3)n2)cc1 | > 64 µM (inactive)
FC(F)(F)c1ccc(-c2csc(-c3ccncc3)n2)cc1 | > 64 µM (inactive)
Clc1ccc(-c2csc(-c3ccncc3)n2)cc1Cl | > 64 µM (inactive)
c1cc(-c2nc(-c3nccs3)cs2)ccn1 | > 64 µM (inactive)
Fc1ccc(-c2csc(-c3ccncc3)n2)cc1 | > 64 µM (inactive)
CC(C)(C)c1csc(-c2ccncc2)n1 | > 64 µM (inactive)
COc1ccc(-c2csc(-c3ccccc3)n2)cc1 | > 64 µM (inactive)
CCCc1cc(-c2nc(-c3ccc(NS(C)(=O)=O)cc3)cs2)ccn1 | > 64 µM (inactive)
COc1cccc(-c2csc(-c3ccncc3)n2)c1 | > 64 µM (inactive)
Clc1ccc(-c2csc(-c3ccccc3)n2)cc1 | > 64 µM (inactive)
CCCc1cc(-c2nc(-c3ccc(C)cc3)cs2)ccn1 | > 64 µM (inactive)
Cc1ccc(-c2csc(-c3cccnc3)n2)cc1 | > 64 µM (inactive)
c1cc(-c2nc(C3CC3)cs2)ccn1 | > 64 µM (inactive)
COc1ccccc1-c1csc(-c2ccncc2)n1 | > 64 µM (inactive)
COc1ccc(-c2csc(-c3cccnc3)n2)cc1 | > 64 µM (inactive)
Cc1sc(-c2ccncc2)nc1-c1ccc(Cl)cc1 | > 64 µM (inactive)
Cc1cccc(-c2csc(-c3ccncc3)n2)c1 | > 64 µM (inactive)
Cc1ccc(-c2nc(-c3ccncc3)sc2C)cc1 | > 64 µM (inactive)
Cc1ccc(-c2csc(-c3ccccn3)n2)cc1 | > 64 µM (inactive)
COc1ccc(-c2nc(-c3ccncc3)sc2C)cc1 | > 64 µM (inactive)

Compound | IC50
Cc1ccccc1-c1csc(-c2ccncc2)n1 | > 64 µM (inactive)
Clc1ccccc1-c1csc(-c2ccncc2)n1 | > 64 µM (inactive)
Cc1sc(-c2ccncc2)nc1-c1ccc(F)cc1 | > 64 µM (inactive)
Clc1ccc(-c2csc(-c3cccnc3)n2)cc1 | > 64 µM (inactive)
COc1ccc(-c2csc(-c3ccncc3)n2)cc1 | > 64 µM (inactive)
Cc1ccc(-c2csc(-c3ccncc3)n2)cc1 | > 64 µM (inactive)
Clc1cccc(-c2csc(-c3ccncc3)n2)c1 | > 64 µM (inactive)
c1ccc(-c2csc(C3CCNCC3)n2)cc1 | > 64 µM (inactive)
Clc1ccc(-c2csc(C3CCNCC3)n2)cc1 | > 64 µM (inactive)
N#Cc1ccc(-c2csc(-c3ccncc3)n2)cc1 | > 64 µM (inactive)
Cc1sc(C2CCNCC2)nc1-c1ccccc1 | > 64 µM (inactive)
c1ccc(-c2nc(-c3cccnc3)cs2)cc1 | > 64 µM (inactive)
Clc1ccc(-c2csc(-c3ccncc3)n2)c(Cl)c1 | > 64 µM (inactive)
COc1ccc(-c2csc(C3CCNCC3)n2)cc1 | > 64 µM (inactive)
Cc1csc(-c2ccncc2)n1 | > 64 µM (inactive)
Clc1ccc(-c2csc(-c3ccccn3)n2)cc1 | > 64 µM (inactive)
Fc1ccc(-c2csc(C3CCNCC3)n2)cc1 | > 64 µM (inactive)
COc1ccc(-c2csc(-c3ccccn3)n2)cc1 | > 64 µM (inactive)
Fc1ccc(-c2csc(-c3ccccn3)n2)cc1 | > 64 µM (inactive)
Fc1ccc(-c2csc(-c3cccnc3)n2)cc1 | > 64 µM (inactive)
Cc1sc(-c2ccncc2)nc1-c1ccccc1 | > 64 µM (inactive)
c1ccc(-c2csc(-c3ccncc3)n2)cc1 | > 64 µM (inactive)
c1ccc(-c2csc(-c3ccccn3)n2)cc1 | > 64 µM (inactive)
Cc1ccc(-c2csc(-c3ccccc3)n2)cc1 | > 64 µM (inactive)
